According to US20120219543A1, “METHODS AND PHARMACEUTICAL COMPOSITIONS FOR THE TREATMENT OF DISORDERS OF GLUCOSE HOMEOSTASIS” (priority 2009, published 2012):
Entries after “also recorded” stand apart in the source; their conditions may differ.

What was measured:
[1] = tested on: E13.5 Rat embryonic pancreases; test: Organ culture of E13.5 rat embryonic pancreases: morphology, immunohistochemistry and surface/cell quantification; type: cell-based
Description: (§1) Pregnant Wistar rats were purchased from the Janvier Breeding centre (CERJ, LeGenet, France). Cftr-knockout (Cftr−/−) and wild-type (Cftr+/+) embryos were obtained from the progeny of heterozygous-heterozygous for the S489X mutation (Snouwaert et al. 1992) matings (CDTA, Orléans, France). The first day postcoitum was taken as embryonic day (E)0.5. Pregnant rats were killed with CO2 asphyxiation and pregnant mice by cervical dislocation according to guidelines issued by the French Animal Care Committee. Dorsal pancreatic buds from E13.5 rat and E12.5 mice embryos were dissected as described previously (Miralles et al. 1998). Briefly, the stomach, pancreas and a small portion of the intestine were dissected together, and then the pancreas primordium was isolated.
(§2) Dorsal pancreatic rudiments were cultured on 0.45 μm filters (Millipore) at the air-medium interface in a 35 mm sterile Petri dishes containing 2 ml RPMI-1640 medium (Invitrogen) supplemented with 100 U/ml penicillin, 100 μg/ml streptomycin, 10 mmol/L HEPES, 2 mmol/L L-glutamine, 1× non-essential aminoacids (Invitrogen) and 10% heat-inactivated fetal calf serum (HyClone, Logan, Utah, USA). Glibenclamide (MP Biomedical), and Glycine hydrazide (GlyH-101)(Calbiochem), used at the indicated concentrations, were first dissolved as concentrated solutions in dimethylsulfoxide DMSO (Sigma), the final concentration of DMSO in the culture medium was less than 0.5% (vol/vol). Glibenclamide and GlyH-101 were added to the media daily. The cultures were incubated at 37° C. in a humidified atmosphere composed of 95% air and 5% CO2. At the end of the culture period, the pancreases were photographied, and fixed as described below or harvested for RNA extraction.
The pancreatic rudiments were fixed in 10% formalin, pre-embedded in agarose gel (4% of type VII low-gelling-temperature agarose [Sigma] in H2O) and embedded in paraffin. Immunohistochemistry was performed on 4-μm paraffin sections as previously described) (Duvillie et al. 2006). The primary antibodies were mouse anti insulin (1/2000; Sigma), rabbit anti-glucagon (1/1000; Diasorin), rabbit anti-amylase (1/300; Sigma), rabbit anti-carboxypeptidase A (CPA) (1/600; Biogenesis, Kidlington, Oxford, UK), rabbit anti-PDX1 (1/1000) (Duvillie et al. 2006) mouse anti-BrdU (1/2; Amersham Biosciences, Buckingham, UK), rabbit anti-Proprotein Convertase Subtilisin/Kexin 1/3 (PCSK1/3), rabbit anti-Ngn3 (1/100, (Guillemain et al. 2007) The fluorescent secondary antibodies were fluorescein anti-rabbit antibody (1/200; Jackson Immunoresearch, Baltimore, Md., USA), fluorescein goat anti-rabbit Alexa Fluor 488 (1/400; Invitrogen) and Texas red anti-mouse antibody (1/200; Jackson). Nuclei were stained in blue with Hoechst 33342 (0.3 μg/ml; Invitrogen). Ngn3 detection was performed as previously described (Guillemain et al. 2007) using the Vectastain elite ABC kit (Vector laboratories).
(§3) To quantify the surface area of insulin, glucagon, PCSK1/3, CPA and amylase-expressing cells, all sections of each pancreatic rudiment were digitized. Alternate sections were examined to avoid counting the same cell twice. The surface of insulin, glucagon, PCSK1/3, CPA, amylase and Hoechst stainings were quantified using Iplab (Scanalytics). The stained areas were summed to obtain the total surface area per rudiment in mm^2. To measure proliferation of the early progenitors expressing PDX1, we counted the frequency of BrdU positive progenitors expressing PDX1 among 3000 early progenitors expressing PDX1 per rudiment. To quantify the absolute number of NGN3-expressing cells, pancreatic rudiments were sectioned and all sections were stained with an anti-NGN3 antibody. Positive cells were counted on all sections of each pancreatic rudiment. A minimum of three rudiments was analyzed per condition.

[2] = tested on: E12.5 pancreases from WT (CFTR+/+) mice; test: Organ culture of E12.5 pancreases from WT (Cftr+/+) mice, insulin-positive cell area; type: cell-based; settings: 10 μM GlyH-101, 6 days of culture
Method: (§4) FIG. 1: Effects of GlyH-H101 on endocrine cell development. Quantification by real-time PCR of insulin (A) and MafA (B) mRNA transcripts in E 13.5 Rat pancreases before (D0) and after 1, 3, 5 and 7 days of culture (D1, D3, D5 and D7 respectively) with or without 10 μM GlyH-101. Each data point represents the mean±sem of at least four independent experiments ***, p<0.001. (C) Immunohistological analysis of E13.5 Rat pancreases cultured 5 days in the presence or in absence of 10 μM GlyH-101. Insulin and amylase staining were respectively in red and green. Nuclei were stained in blue with Hoechst. Scale bar: 50 μm (D). β cell differentiation was evaluated by quantification of the absolute surface area occupied by insulin staining in E 13.5 Rat pancreases after 5 days of culture in presence or in absence of 10 μM GlyH-101. Values are means±sem of at least three independent experiments *, p<0.05; (E) Quantification by real-time PCR of Ngn3 transcripts in E13.5 Rat pancreases before (D0) and after 1, 3, 5 and 7 days of culture (D0, D1, D3, D5 and D7 respectively) with or without 10 μM GlyH-101. […] (G) Quantification of the number of NGN3 positive-cells in E13.5 Rat pancreases cultured for 5 days in presence or in absence of 10 μM GlyH-101. […]
(§5) To quantify the surface area of insulin, glucagon, PCSK1/3, CPA and amylase-expressing cells, all sections of each pancreatic rudiment were digitized. […]

[3] = tested on: E12.5 pancreases from knockout (CFTR-/-) mice; test: Organ culture of E12.5 pancreases from Cftr knockout (Cftr-/-) mice, insulin-positive cell area; type: cell-based; settings: 10 μM GlyH-101, 6 days of culture
Method: as §4, §5

[4] = tested on: mRNA transcripts (insulin, MafA, ZnT-8, Ngn3, NeuroD1, Pou3F4, somatostatin) in E13.5 Rat pancreases; test: Real-time PCR of mRNA transcripts in cultured E13.5 rat pancreases; type: cell-based; settings: for insulin mRNA level increase / ZnT-8 and MafA expression: Glib 5D
Description: as §1, §2
Total RNA was isolated from pools of at least three pancreases using the Qiagen RNeasy Microkit (Qiagen, Courtaboeuf, France) and reverse transcribed using Superscript reagents (Invitrogen). Real-time PCR was performed with the 7300 Fast real-time PCR system (Applied Biosystem) using either Taqman universal PCR master mix or SYBR green PCR master mix (Applied Bio system) with primers and labelled probes specific for each gene. Peptidylpropyl isomerase A/Cyclophilin A was used as endogenous control and E16.5 pancreas cDNA as calibrator sample. The data were analyzed by comparative cycle threshold method (Livak and Schmittgen 2001) and presented as the fold change in gene expression. At least three pools of explants were analysed by condition.

[5] = tested on: E13.5 Rat embryonic pancreases (PDX-1+ progenitors, insulin-expressing cells); test: BrdU incorporation (proliferation) in cultured E13.5 rat pancreases; type: cell-based; settings: 10 μM GlyH-101, D5, BrdU during last hour
Method: as §2, with “Glibenclamide and GlyH-101 were added to the media daily. The cultures were incubated at 37° C. in a humidified atmosphere composed of 95% air and 5% CO2. At the end of the culture period, the pancreases were photographied, and fixed as described below or harvested for RNA extraction.” left out
as §3, with “Alternate sections were examined to avoid counting the same cell twice.” left out, “The stained areas were summed to obtain the total surface area per rudiment in mm^2.” left out, “A minimum of three rudiments was analyzed per condition.” left out

[6] = tested on: beta cell mass of embryos of pregnant mice; test: In vivo administration to pregnant mice, insulin staining surface of embryonic pancreas; settings: E12.5 pregnant mice, 10 mg/kg/day for 5 days, intraperitoneal, embryos harvested at E18.5
Method: To evaluate its effects in vivo, GlyH 101 was administrated to a E12.5 pregnant mice for 5 days at 10 mg/kg/day (according to Yang et al. 2008) in a saline DMSO solution ([…]) by intraperitoneal injection two times a day. The embryos were harvested at E18.5 and the pancreas fixed for histological immunostaining. The surface of insulin staining was quantified and normalized to the whole pancreatic tissue.

CFTR channel = CFTR channel (Homo sapiens, UniProt P13569); settings: open-channel block mechanism; cited from earlier work
Sequence of CFTR channel (P13569 whole entry): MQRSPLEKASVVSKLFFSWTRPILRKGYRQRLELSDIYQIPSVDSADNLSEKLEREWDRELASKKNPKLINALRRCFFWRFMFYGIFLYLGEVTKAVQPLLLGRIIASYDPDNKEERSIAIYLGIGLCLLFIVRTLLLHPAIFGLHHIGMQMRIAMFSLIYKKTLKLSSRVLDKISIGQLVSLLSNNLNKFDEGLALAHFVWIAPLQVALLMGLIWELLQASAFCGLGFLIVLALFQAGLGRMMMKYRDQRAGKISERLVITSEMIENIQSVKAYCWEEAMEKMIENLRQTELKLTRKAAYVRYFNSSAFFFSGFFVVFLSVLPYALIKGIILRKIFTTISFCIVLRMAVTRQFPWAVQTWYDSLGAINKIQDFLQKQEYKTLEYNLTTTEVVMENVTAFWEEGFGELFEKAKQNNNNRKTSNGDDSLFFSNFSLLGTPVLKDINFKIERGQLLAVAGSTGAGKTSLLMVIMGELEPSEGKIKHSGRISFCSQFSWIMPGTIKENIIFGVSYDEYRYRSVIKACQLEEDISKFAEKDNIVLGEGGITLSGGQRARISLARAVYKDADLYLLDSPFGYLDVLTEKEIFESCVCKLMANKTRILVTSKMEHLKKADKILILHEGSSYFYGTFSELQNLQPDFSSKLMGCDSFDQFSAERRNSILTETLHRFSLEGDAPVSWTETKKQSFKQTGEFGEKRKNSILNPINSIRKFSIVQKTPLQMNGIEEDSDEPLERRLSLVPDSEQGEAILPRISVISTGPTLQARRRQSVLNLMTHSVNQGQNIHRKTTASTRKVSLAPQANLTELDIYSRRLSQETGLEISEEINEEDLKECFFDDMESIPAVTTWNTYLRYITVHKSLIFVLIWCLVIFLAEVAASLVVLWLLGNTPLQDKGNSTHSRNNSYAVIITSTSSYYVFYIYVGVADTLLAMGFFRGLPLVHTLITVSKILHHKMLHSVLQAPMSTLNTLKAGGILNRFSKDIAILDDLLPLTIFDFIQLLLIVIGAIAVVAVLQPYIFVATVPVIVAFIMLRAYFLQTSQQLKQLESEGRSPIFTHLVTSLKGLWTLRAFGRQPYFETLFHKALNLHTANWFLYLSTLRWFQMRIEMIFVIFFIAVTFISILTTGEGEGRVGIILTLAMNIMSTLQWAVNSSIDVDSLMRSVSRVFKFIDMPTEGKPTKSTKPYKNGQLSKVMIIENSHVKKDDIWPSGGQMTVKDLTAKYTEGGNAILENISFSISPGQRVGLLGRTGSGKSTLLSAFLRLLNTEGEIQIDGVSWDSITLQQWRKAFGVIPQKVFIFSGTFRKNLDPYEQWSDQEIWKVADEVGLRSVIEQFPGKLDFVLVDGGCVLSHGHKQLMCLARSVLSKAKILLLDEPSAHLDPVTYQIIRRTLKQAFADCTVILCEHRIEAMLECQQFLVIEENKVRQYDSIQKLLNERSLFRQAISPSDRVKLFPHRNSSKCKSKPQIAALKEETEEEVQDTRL

[7] = tested on: human liver cell line HepG2; settings: HepG2 cultured with 100 μM glibenclamide; cited from earlier work
[8] = 100 μM, 7 days of culture, vs absence

O=C(CNc1ccc2ccccc2c1)NN=Cc1cc(Br)c(O)c(Br)c1O [GlyH-101, N-2-napthalenyl-[(3,5-dibromo-2,4-dihydroxyphenyl)methylene]glycine hvdrazide]
exocrine differentiation ([1]; 10 μM GlyH-101): did not observe any effects | area occupied by insulin-positive cells ([1]; 10 μM GlyH-101, 5 days of culture): dramatic increase | pool/number of Ngn3+ pancreatic endocrine progenitor cells ([1]; 10 μM GlyH-101, D5): increased number; also recorded: amplified and maintained | insulin+ cell area [2]: increase | insulin+ cell area [3]: unable to modify | increase of MafA mRNA transcripts ([4]; 10 μM GlyH-101, D3): more than twofold | increase of insulin mRNA transcripts ([4]; 10 μM GlyH-101, D3): more than twofold | increase in Ngn3 expression (real-time PCR) ([4]; 10 μM GlyH-101, D5): 8 fold | insulin expression ([4]; 10 μM GlyH-101, after 5 and 7 days of culture): sixfold | Ngn3 expression (real-time PCR) ([4]; 10 μM GlyH-101, from D1): strong increase | proliferative rate of insulin-expressing cells (BrdU) [5]: No differences | beta cell mass (insulin staining surface normalized to whole pancreatic tissue) [6]: increased

COc1ccc(Cl)cc1C(=O)NCCc1ccc(S(=O)(=O)NC(=O)NC2CCCCC2)cc1 [glibenclamide]
pancreatic growth ([1]; 10 nM, 100 nM, 1, 10 or 100 μM glibenclamide vs control, 7 days of culture): similar | number of NGN3+ cells (immunohistochemistry) ([1]; 100 μM, 5 days of culture, vs absence): threefold | increase of the number of glucagon-expressing cells ([1]; 100 μM, 7 days of culture): 3.5 fold | decrease of surface area occupied by the insulin-cell population [1, 8]: 70% | surface area occupied by amylase- and carboxypeptidaseA-positive cells [1, 8]: No differences | surface area occupied by PCSK1/3 staining in PDX-1+ cells ([1]; 100 μM, 7 days of culture, vs without): similar | exocrine (acinar and ductal) development ([1]; 100 μM, 7 days, amylase, carboxypeptidaseA, SPP1 and CFTR markers): did not to modify | apoptosis (Hoechst staining of the nuclei) ([1]; 10 and 100 μM, 7 days of culture, vs without): no difference | overall size of pancreases (quantitative analysis) ([1]; 10 or 100 μM, 7 days of culture): lack of glibenclamide toxicity | insulin-staining area (insulin-positive cells) ([1]; Glib 5D-treated pancreas): significant increase | insulin-expressing cells observed ([1]; Glib-5D pancreases at D9, D11 or D14): A large number | insulin-containing cells detected ([1]; glibenclamide present throughout 9, 11 or 14 days of culture): less | pancreas development ([1]; up to 1 micromolar): did not affect | CFTR channel inhibition (CFTR channel): inhibits CFTR channel in a dose-dependant manner | toxicity and apoptosis [7]: no toxicity nor apoptosis | NeuroD1 expression ([4]; 100 μM, D5): significantly increased; also recorded: twofold | NeuroD1 expression ([4]; 100 μM, D7): enhanced | Pou3F4/Brn4 mRNA level ([4]; 100 μM, D7): significant increase | NeuroD1 mRNA levels ([4]; 100 μM, after 1 and 3 days of culture, vs absence): similar | Ngn3 expression increase ([4]; 100 μM, after 5 days of culture, p<0.001): sevenfold; also recorded: seven | increase in somatostatin expression ([4]; 100 μM, after 7 days of culture): twofold | Ngn3 mRNA level ([4]; 100 μM, after 7 days of culture, p<0.001): dramatically higher; also recorded: threefold | insulin expression (real-time PCR) ([4]; 100 μM, as early as D3): strongly reduced | Ngn3 expression ([4]; 100 μM, day 1 and 3, vs absence): similar | expression of β-cell markers ZnT-8 and MafA ([4]; 100 μM, over the 7 days of culture): did not affect | reversal of low insulin content and reduced insulin gene transcription ([4]; 2 days after glibenclamide removal): completely reverted | insulin mRNA level increase ([4]; D9, vs without): threefold | insulin mRNA level increase ([4]; D11, vs without): twofold | insulin mRNA level increase ([4]; D14, vs without): threefold | ZnT-8 and MafA expression ([4]; after 9, 11 and 14 days of culture, p<0.01): dramatic increase | ZnT-8 and MafA expression ([4]; after 7 days of culture): similar | insulin mRNA level ([4]; glibenclamide only first 5 days of culture (Glib 5D), D7, vs without): identical
